How the values were obtained:
[1] = HLM, ref 14 (THJ-018, THJ-2201), 15 (NNEI, MN-18), 106 (NM-2201), 107 (BIM-2201), 108 (STS-135), 16 (AB-PINACA, 5F-AB-PINACA), 54 (5F-MDMB-PINACA), 69 (AB-FUBINACA), 17 (ADB-FUBINACA), 97 (FDU-PB-22, FUB-PB-22), cited from earlier work; for CLint micr / t1/2: 95 (Cumyl-PICA, 5F-Cumyl-PICA), 109 (5F-APP-PICA, 5F-APP-PINACA; for CLint micr: 73 (5F-AMB-PINACA); for t1/2 / CLint: 57 (AMB-4en-PICA); for t1/2: 73 (AMB-PINACA, 5F-AMB-PINACA)
[2] = tested on: pooled human cryopreserved hepatocytes (pHHeps); assay: Metabolic stability, pooled human cryopreserved hepatocyte incubations
[3] = Plasma protein binding by equilibrium dialysis; format: in vitro ADME, human; details: human, pooled human plasma, pH 7.4, equilibrium dialysis 5 h, 37 °C, 10 µg mL^−1; read-out: PPB (%) (converted)
Description: Plasma protein binding was assessed by equilibrium dialysis in a 96-well dialysis block (HTDialysis, Ledyard, CT, USA). Dialysis membranes (12–14 kDa) were soaked in deionised water for at least 60 min. Membranes were soaked overnight at 4 °C in ethanol:water 20:80% v/v and then rinsed with deionised water immediately prior to use. […] Spiked plasma (150 µL) was dialysed against isotonic phosphate buffer (pH 7.4) (150 µL) for 5 h at 37 °C with shaking at 100 rpm. Thermal degradation controls for each test compound were kept at 37 °C and 4 °C. Blank control plasma and buffer were included in the incubation. Following incubation, dialysed plasma samples and thermal degradation controls (50 µL) were added to drug-free buffer (50 µL), and dialysed buffer samples (50 µL) were added to drug-free plasma (50 µL). […] Supernatant (150 µL) was added to 50 µL deionised water and samples were analysed by UPLC-MS/MS as described above. Dialysed buffer from each well was tested for protein contamination using BCA protein assay reagent to determine whether membranes had been compromised.
Bu = Analyte/IS ratio determined in buffer side (2) Fraction unbound, fu=(100−% bound)/100

[4] = Metabolic stability, pooled human liver microsome incubations
Description: Total incubation volume was 500 µL. Procedure: Test compound working solutions (50 µM in potassium phosphate buffer (pH 7.4)) were prepared (<1% DMSO). pHLM were thawed and diluted in potassium phosphate buffer (pH 7.4). […] Reactions were quenched in 200 µL ACN spiked with donepezil (IS, 50 ng mL^−1). […] Samples were analysed by UPLC-MS/MS in a 96 deep-well 2 mL plate. Each SCRA was incubated at least in triplicate but additional incubations were carried out across a number of analytical batches, giving greater replication and a greater understanding of system variability. Microsomal scaling factors used for human liver microsome incubations in the literature vary. Intrinsic clearance and predicted in vivo clearance rates calculated using alternative scaling factors found in the literature is provided in Section S6 of the supplementary information, to aid comparison of data between publications.
Equations used for in vitro intrinsic clearance calculation and human in vivo clearance […]
The equations used for in vitro intrinsic clearance calculation and human in vivo clearance estimation […]
Microsomal clearance (HLM incubations) in mL min-1 mg microsomal protein-1 [3]
Intrinsic clearance (whole-liver dimensions) (HLM incubations) in mL min-1 kg-1 [3] CL = k x V x [Liver](g) x SF Eqn. 7 […]
mg g microsomal protein-1 [7]
Intrinsic clearance (whole-liver dimensions) (HHep incubations) in mL min-1 kg-1 [4] CL = k x V x hepatocytes/g liver x [Liver](g) Eqn. 8 […]
Where: hepatocytes/g liver = 107x10^6 cells/g liver
Hepatic clearance in mL min-1 kg-1 [3]
[…] Eqn. 9
Where: Q = hepatic blood flow, 21 mL min-1 kg-1 [9]; fu = fraction unbound (plasma); CLint = […]
Estimated human hepatic extraction ratio [5]
Intrinsic clearance data – pooled human liver microsome incubations […]
table S4-28. Intrinsic clearance and predicted in vivo data calculated using alternative microsomal scaling factors found in the literature – 32 [10] and 45 [11] mg microsomal protein per gram liver – are provided in tables S29 and S30, respectively.

[5] = Short-term plasma stability with and without esterase inhibitors; details: 3 h, 37 °C
[6] = pHHeps, 99x10^6 hepatocytes per gram liver
[7] = pHLM, scaling factor 32 mg microsomal protein per gram liver
[8] = pHLM, scaling factor 45 mg microsomal protein per gram liver

CCCCCn1cc(C(=O)NC(C)(C)c2ccccc2)c2ccccc21 [Cumyl-PICA, 1-pentyl-N-(2-phenylpropan-2-yl)-1H-indole-3-carboxamide]
CLint micr [1]: 120 µL/min/mg | t1/2 [1]: 5.92 min

CCCCCn1nc(C(=O)N[C@H](C(=O)OC)C(C)C)c2ccccc21 [AMB-PINACA, methyl (1-pentyl-1H-indazole-3-carbonyl)valinate]
t1/2 [1]: 1.1 min

NC(=O)[C@H](Cc1ccccc1)NC(=O)c1nn(CCCCCF)c2ccccc12 [5F-APP-PINACA]
CLint micr [1]: 202 µL/min/mg | t1/2 [1]: 3.4 min

COC(=O)[C@H](NC(=O)c1nn(CCCCF)c2ccccc12)C(C)(C)C [(R)-4F-MDMB-BINACA (4), methyl 2-[1-(4-fluorobutyl)-1H-indazole-3-carboxamido]-3,3-dimethylbutanoate]
Predicted In Vivo Hepatic Clearance, CLH ([2]; from pHHeps CLint, well-stirred model with plasma fu, Q 21 mL min^−1 kg^−1): 0.526 ± 0.0858 L/h/kg | Hepatic extraction ratio, EH ([2]; from pHHeps incubations): 0.42 ± 0.068 | T1/2 ([2]; pHHeps 0.25 million cells mL^−1, 0.5 µM, 37 °C, n ≥ 3 ± SD): 58 ± 17.2 min | Hepatic extraction ratio, EH [2, 6]: 0.40 ± 0.067 | Predicted in vivo hepatic clearance, CLH [2, 6]: 0.503 ± 0.084 L/h/kg | % parent compound remaining, Average ([2]; pHHeps, 3 min): 89.2% | % parent compound remaining, Average ([2]; pHHeps, 6 min): 84.6% | % parent compound remaining, Average ([2]; pHHeps, 9 min): 91.0% | % parent compound remaining, Average ([2]; pHHeps, 15 min): 82.6% | % parent compound remaining, Average ([2]; pHHeps, 30 min): 65.7% | % parent compound remaining, Average ([2]; pHHeps, 45 min): 48.5% | % parent compound remaining, Average ([2]; pHHeps, 60 min): 37.9% | Intrinsic clearance, CLint ([2]; pHHeps, alternative hepatocyte cell density 99x10^6 hepatocytes per gram liver): 7.68 ± 2.08 L/h/kg | fraction unbound at 5 h, 10 µg mL^−1 [3]: 0.111 | Predicted In Vivo Hepatic Clearance, CLH ([4]; from pHLM CLint, well-stirred model with plasma fu, Q 21 mL min^−1 kg^−1): 0.513 ± 0.0144 L/h/kg | Hepatic extraction ratio, EH ([4]; from pHLM incubations): 0.41 ± 0.012 | T1/2 ([4]; pHLM 0.5 mg mL^−1, 0.5 µM, NADPH, 37 °C, n ≥ 3 ± SD): 14 ± 0.68 min | % parent compound remaining, Average ([4]; pHLM, 3 min): 78.8% | % parent compound remaining, Average ([4]; pHLM, 6 min): 72.8% | % parent compound remaining, Average ([4]; pHLM, 9 min): 54.1% | % parent compound remaining, Average ([4]; pHLM, 15 min): 48.4% | % parent compound remaining, Average ([4]; pHLM, 30 min): 26.6% | Intrinsic clearance, CLint ([4]; pHLM, alternative microsomal scaling factor 32 mg microsomal protein per gram liver): 4.74 L/h/kg | Intrinsic clearance, CLint ([4]; pHLM, alternative microsomal scaling factor 45 mg microsomal protein per gram liver): 6.72 L/h/kg | Microsomal Intrinsic Clearance, CLint micr ([4]; pHLM, n ≥ 3 ± SD): 0.096 ± 0.005 mL min^−1 mg Microsomal Protein^−1 | Hepatic extraction ratio, EH [4, 7]: 0.30 ± 0.010 | Predicted in vivo hepatic clearance, CLH [4, 7]: 0.372 L/h/kg | Hepatic extraction ratio, EH [4, 8]: 0.37 ± 0.011 | Predicted in vivo hepatic clearance, CLH [4, 8]: 0.467 L/h/kg | Parent Compound Remaining (%), Esterase Inhibitors ([5]; pH 7.4, BNPP and PMSF 500 µM each): 96.0 ± 1.7% | Parent Compound Remaining (%), No Esterase Inhibitors ([5]; pH 7.4, pooled human plasma): 91.1 ± 6.8%

CC(C)(NC(=O)c1cn(CCCCCF)c2ccccc12)c1ccccc1 [5F-Cumyl-PICA]
CLint micr [1]: 390 µL/min/mg | t1/2 [1]: 1.77 min

CCCCCn1nc(C(=O)N[C@H](C(N)=O)C(C)C)c2ccccc21 [AB-PINACA]
CLint micr [1]: 37 µL/min/mg | t1/2 [1]: 18.7 min | CLint [1]: 2.1 L/h/kg

O=C(NC12CC3CC(CC(C3)C1)C2)c1cn(CCCCCF)c2ccccc12 [STS-135, N-(adamantan-1-yl)-1-(5-fluoropentyl)-1H-indole-3-carboxamide]
CLint micr [1]: 222 µL/min/mg | t1/2 [1]: 3.1 min | CLint [1]: 12.5 L/h/kg

CCCCCn1cc(C(=O)Nc2cccc3ccccc23)c2ccccc21 [NNEI]
CLint micr [1]: 300 µL/min/mg | t1/2 [1]: 2.29 min | CLint [1]: 21 L/h/kg

O=C(Oc1cccc2cccnc12)c1cn(Cc2ccc(F)cc2)c2ccccc12 [FUB-PB-22]
CLint micr [1]: 60 µL/min/mg | t1/2 [1]: 11.5 min | CLint [1]: 3.43 L/h/kg

CCCCCn1nc(C(=O)Nc2cccc3ccccc23)c2ccccc21 [MN-18]
CLint micr [1]: 410 µL/min/mg | t1/2 [1]: 1.71 min | CLint [1]: 28.1 L/h/kg

CCCCCn1nc(C(=O)c2cccc3ccccc23)c2ccccc21 [THJ-018]
CLint micr [1]: 36 µL/min/mg | t1/2 [1]: 19.2 min | CLint [1]: 2.05 L/h/kg

O=C(c1cccc2ccccc12)c1nc2ccccc2n1CCCCCF [BIM-2201]
CLint micr [1]: 142 µL/min/mg | t1/2 [1]: 4.9 min | CLint [1]: 8.046 L/h/kg

NC(=O)[C@H](Cc1ccccc1)NC(=O)c1nn(CC2CCCCC2)c2ccccc12
CLint micr [1]: 133 µL/min/mg | t1/2 [1]: 5.2 min

O=C(Oc1cccc2ccccc12)c1cn(CCCCCF)c2ccccc12 [NM-2201]
CLint micr [1]: 88 µL/min/mg | t1/2 [1]: 8.0 min | CLint [1]: 4.9 L/h/kg

O=C(c1cccc2ccccc12)c1nn(CCCCCF)c2ccccc12 [THJ-2201]
CLint micr [1]: 64 µL/min/mg | t1/2 [1]: 10.8 min | CLint [1]: 3.65 L/h/kg

NC(=O)[C@H](Cc1ccccc1)NC(=O)c1cn(CCCCCF)c2ccccc12 [Compound 5F-APP-PICA]
CLint micr [1]: 46 µL/min/mg | t1/2 [1]: 15.1 min

COC(=O)C1=C(C)NC(C)=C(C(=O)OCCN(C)Cc2ccccc2)C1c1cccc([N+](=O)[O-])c1 (stereo not shown) [nicardipine, reference compound]
fraction unbound at 5 h, 10 µg mL^−1 [3]: 0.023

O=C(Oc1cccc2ccccc12)c1cn(Cc2ccc(F)cc2)c2ccccc12 [FDU-PB-22]
CLint micr [1]: 56 µL/min/mg | t1/2 [1]: 12.4 min | CLint [1]: 3.16 L/h/kg

CC(C)[C@H](NC(=O)c1nn(CCCCCF)c2ccccc12)C(N)=O [Compound 5F-AB-PINACA]
CLint micr [1]: 19 µL/min/mg | t1/2 [1]: 35.9 min | CLint [1]: 1.08 L/h/kg
